From the RepoRT retention time repository (doi:10.1007/s11306-011-0298-z)
Structures can show the parent of a compound that is named as a salt.

assay: RP, Waters ACQUITY UPLC HSS T3, 100 × 2.1 mm, 1.8 µm, 30 °C, 0.3 mL/min, estimated dead time 0.73 min; A: water + 0.1% formic acid, pH 3; B: methanol + 0.1% formic acid, pH 3; gradient (min/%B) 0/0 6/0 56/100 60/100; conditions: stereoisomer not certain

Question: For `O=C1CC(c2ccc(O)cc2)Oc2cc(O)cc(O)c21` (configuration not stated) [naringenin], which LC retention time is on record?
Answer: The LC retention time was 33.8 min.

Question: With `CC1OC(OC2C(Oc3cc(O)c4c(c3)OC(c3ccc(O)cc3)CC4=O)OC(CO)C(O)C2O)C(O)C(O)C1O` (configuration not stated) [naringin] as the compound, how does the LC retention time read?
Answer: The LC retention time was 28.6 min.

Question: Which LC retention time does the source give for `NC(=O)c1cccnc1` [nicotinamide] here?
Answer: Its LC retention time is 3.79 min.

Question: Which LC retention time does the source give for `CN1CCCC1c1cccnc1` (configuration not stated) [nicotine] here?
Answer: Its LC retention time is 4.64 min.

Question: Which LC retention time does the source give for `Nc1ncnc2c1ncn2C1OC(COP(=O)(O)OP(=O)(O)OCC2OC([n+]3cccc(C(=O)O)c3)C(O)C2O)C(O)C1O` (configuration not stated) [nicotinic acid adenin dinucleotide] here?
Answer: The LC retention time was 8.3 min.

Question: For `O=C(O)c1ccc[n+](C2OC(COP(=O)([O-])O)C(O)C2O)c1` (configuration not stated) [nicotinic acid mononucleotide], which LC retention time is on record?
Answer: Its LC retention time is 2.1 min.

Question: With `O=C(O)c1cccnc1` [nicotinic acid] as the compound, how does the LC retention time read?
Answer: Its LC retention time is 2.98 min.

Question: Which LC retention time does the source give for `CCCCCCCCC(=O)O` [nonanoic acid] here?
Answer: The LC retention time was 43.1 min.

Question: Which LC retention time does the source give for `O=C(O)C=Cc1ccccc1O` [o-coumaric acid] here?
Answer: Its LC retention time is 28.1 min.

Question: With `CCCCCCCC(=O)O` [octanoic acid] as the compound, how does the LC retention time read?
Answer: The LC retention time was 40 min.

Question: With `CCCCCCCCOC1OC(CO)C(O)C(O)C1O` (configuration not stated) [octyl glucopyranoside] as the compound, how does the LC retention time read?
Answer: The LC retention time was 37.6 min.

Question: For `CCCCCCCCN` [octylamine], which LC retention time is on record?
Answer: Its LC retention time is 27.6 min.

Question: Which LC retention time does the source give for `CCCCCCCCC=CCCCCCCCC(=O)O` [oleic acid] here?
Answer: Its LC retention time is 54.9 min.

Question: With `O=c1cc(-c2ccc(O)c(O)c2)oc2c(C3OC(CO)C(O)C(O)C3O)c(O)cc(O)c12` (configuration not stated) [orientin] as the compound, how does the LC retention time read?
Answer: The LC retention time was 25.5 min.

Question: Which LC retention time does the source give for `O=C(O)C(=O)O` [oxalic acid] here?
Answer: Its LC retention time is 1.3 min.

Question: With `COc1cc(-c2oc3cc(=O)cc4oc(O)cc(c2OC2OC(CO)C(O)C(O)C2O)c43)cc(OC)c1O` (configuration not stated) [oxovitisin A] as the compound, how does the LC retention time read?
Answer: The LC retention time was 33.2 min.

Question: For `O=C(O)/C=C/c1ccc(O)cc1` [p-coumaric acid], which LC retention time is on record?
Answer: The LC retention time was 24.3 min.

Question: With `Oc1ccc(C2c3c(O)cc(O)cc3C3C(c4ccc(O)cc4)c4c(O)cc(O)cc4C23)cc1` (configuration not stated) [pallidol] as the compound, how does the LC retention time read?
Answer: Its LC retention time is 25.9 min.

Question: For `CCCCCCCCCCCCCCCC(=O)O` [palmitic acid], which LC retention time is on record?
Answer: Its LC retention time is 54.4 min.

Question: With `OCC1OC(Oc2cc3c(OC4OC(CO)C(O)C(O)C4O)cc(O)cc3[o+]c2-c2ccc(O)cc2)C(O)C(O)C1O` (configuration not stated) [pelargonidin-3,5-diglucoside] as the compound, how does the LC retention time read?
Answer: Its LC retention time is 19.6 min.

Question: Which LC retention time does the source give for `OCC1OC(Oc2cc3c(O)cc(O)cc3[o+]c2-c2ccc(O)cc2)C(O)C(O)C1O` (configuration not stated) [pelargonidin-3-glucoside] here?
Answer: Its LC retention time is 23.7 min.

Question: Which LC retention time does the source give for `O=c1c(OC2OC(COC3OCC(O)C(O)C3O)C(O)C(O)C2O)c(-c2ccc(O)c(O)c2)oc2cc(O)cc(O)c12` (configuration not stated) [peltatoside] here?
Answer: The LC retention time was 28.3 min.

Question: Which LC retention time does the source give for `COc1cc(-c2[o+]c3cc(O)cc(OC4OC(CO)C(O)C(O)C4O)c3cc2OC2OC(CO)C(O)C(O)C2O)ccc1O` (configuration not stated) [peonidin 3,5 diglucoside] here?
Answer: The LC retention time was 20.2 min.

Question: With `COc1cc(-c2[o+]c3cc(O)cc(O)c3cc2OC2OC(CO)C(O)C(O)C2O)ccc1O` (configuration not stated) [peonidin 3-galactoside] as the compound, how does the LC retention time read?
Answer: Its LC retention time is 24 min.

Question: Which LC retention time does the source give for `COc1cc(-c2oc3cc(=O)cc(O)c-3cc2OC2OC(COC(=O)C=Cc3ccc(O)cc3)C(O)C(O)C2O)ccc1O` (configuration not stated) [peonidin-3-O-(6-p-coumaroyl)-glucoside] here?
Answer: The LC retention time was 33 min.

Question: For `COc1cc(-c2[o+]c3cc(O)cc(O)c3cc2OC2OCC(O)C(O)C2O)ccc1O` (configuration not stated) [peonidin-3-arabinoside], which LC retention time is on record?
Answer: Its LC retention time is 24.8 min.

Question: For `COc1cc(-c2[o+]c3cc(O)cc(O)c3cc2OC2OC(CO)C(O)C(O)C2O)cc(O)c1O` (configuration not stated) [petunidin-3-glucoside], which LC retention time is on record?
Answer: Its LC retention time is 22.9 min.

Question: For `COc1cc(-c2[o+]c3cc(O)cc(O)c3cc2O)cc(O)c1O` [petunidin], which LC retention time is on record?
Answer: The LC retention time was 29.7 min.

Question: For `NCCc1ccccc1` [phenethylamine], which LC retention time is on record?
Answer: The LC retention time was 12.1 min.

Question: With `O=C(CCc1ccc(O)cc1)c1c(O)cc(O)cc1OC1OC(CO)C(O)C(O)C1O` (configuration not stated) [phloridzin] as the compound, how does the LC retention time read?
Answer: The LC retention time was 29.6 min.

Question: Which LC retention time does the source give for `COC1C(O)C(O)C(O)C(O)C1O` (configuration not stated) [pinitol] here?
Answer: The LC retention time was 1.41 min.

Question: With `O=C(O)C1CNCCN1` (configuration not stated) [piperazine carboxylic acid] as the compound, how does the LC retention time read?
Answer: Its LC retention time is 1.19 min.

Question: With `C1CCNCC1` [piperidine hydrochloride] as the compound, how does the LC retention time read?
Answer: The LC retention time was 2.5 min.

Question: With `O=C(C=CC=Cc1ccc2c(c1)OCO2)N1CCCCC1` [piperine] as the compound, how does the LC retention time read?
Answer: The LC retention time was 40.7 min.

Question: For `O=C(O)c1ccc2c(c1)OCO2` [piperonylic acid], which LC retention time is on record?
Answer: The LC retention time was 26.7 min.

Question: For `Oc1cc(O)c2c(c1)OC(c1ccc(O)c(O)c1)C(O)C2c1c(O)cc(O)c2c1OC(c1ccc(O)c(O)c1)C(O)C2` (configuration not stated) [procyanidin B1], which LC retention time is on record?
Answer: Its LC retention time is 18.1 min.

Question: Which LC retention time does the source give for `Oc1cc(O)c2c(c1)OC1(c3ccc(O)c(O)c3)Oc3cc(O)c4c(c3C2C1O)OC(c1ccc(O)c(O)c1)C(O)C4` (configuration not stated) [procyanidin-A2] here?
Answer: Its LC retention time is 25.2 min.

Question: With `CCCN` [propylamine] as the compound, how does the LC retention time read?
Answer: The LC retention time was 1.5 min.

Question: For `O=C(O)c1ccc(O)c(O)c1` [protocatechuic acid], which LC retention time is on record?
Answer: Its LC retention time is 13.9 min.

Question: Which LC retention time does the source give for `COc1cc(C=Cc2ccc(O)cc2)cc(OC)c1` [pterostilbene] here?
Answer: The LC retention time was 41.4 min.

Question: For `Cc1ncc(COP(=O)(O)O)c(C=O)c1O` [pyridoxal 5-phosphate], which LC retention time is on record?
Answer: The LC retention time was 3.99 min.

Question: Which LC retention time does the source give for `Cc1ncc(CO)c(C=O)c1O` [pyridoxal] here?
Answer: Its LC retention time is 3.77 min.

Question: For `Cc1ncc(COP(=O)(O)O)c(CN)c1O` [pyridoxamine 5-phosphate], which LC retention time is on record?
Answer: Its LC retention time is 1.41 min.

Question: With `Cc1ncc(CO)c(CN)c1O` [pyridoxamine] as the compound, how does the LC retention time read?
Answer: The LC retention time was 1.42 min.

Question: For `Cc1ncc(CO)c(CO)c1O` [pyridoxine], which LC retention time is on record?
Answer: The LC retention time was 4.9 min.

Question: Which LC retention time does the source give for `Oc1ccccc1O` [pyrocatechol] here?
Answer: Its LC retention time is 13 min.

Question: With `C1CCNC1` [pyrrolidine] as the compound, how does the LC retention time read?
Answer: Its LC retention time is 1.5 min.

Question: Which LC retention time does the source give for `CC(=O)C(=O)O` [pyruvic acid] here?
Answer: The LC retention time was 1.79 min.

Question: With `O=c1c(OC2OC(CO)C(O)C(O)C2O)c(-c2ccc(OC3OC(CO)C(O)C(O)C3O)c(O)c2)oc2cc(O)cc(O)c12` (configuration not stated) [quercetin 3,4'-diglucoside] as the compound, how does the LC retention time read?
Answer: Its LC retention time is 26.1 min.

Question: Which LC retention time does the source give for `O=c1c(OC2OC(C(O)CO)C(O)C2O)c(-c2ccc(O)c(O)c2)oc2cc(O)cc(O)c12` (configuration not stated) [quercetin 3-glucoside] here?
Answer: Its LC retention time is 29.1 min.

Question: For `O=C(O)C1OC(Oc2c(-c3ccc(O)c(O)c3)oc3cc(O)cc(O)c3c2=O)C(O)C(O)C1O` (configuration not stated) [quercetin 3-glucuronide], which LC retention time is on record?
Answer: Its LC retention time is 28.4 min.

Question: With `CC1OC(OCC2OC(Oc3c(-c4ccc(O)c(O)c4)oc4cc(O)cc(O)c4c3=O)C(O)C(O)C2O)C(O)C(O)C1O` (configuration not stated) [quercetin 3-rutinoside] as the compound, how does the LC retention time read?
Answer: Its LC retention time is 29.1 min.

Question: Which LC retention time does the source give for `O=c1c(OS(=O)(=O)O)c(-c2ccc(O)c(O)c2)oc2cc(O)cc(O)c12` [quercetin 3-sulfate] here?
Answer: Its LC retention time is 27.4 min.

Question: Which LC retention time does the source give for `O=c1c(O)c(-c2ccc(OC3OC(CO)C(O)C(O)C3O)c(O)c2)oc2cc(O)cc(O)c12` (configuration not stated) [quercetin 4'-glucoside] here?
Answer: The LC retention time was 30.4 min.

Question: With `CC(=O)OCC1OC(Oc2c(-c3ccc(O)c(O)c3)oc3cc(O)cc(O)c3c2=O)C(O)C(O)C1O` (configuration not stated) [quercetin-3-O-glucose-6''-acetate] as the compound, how does the LC retention time read?
Answer: Its LC retention time is 31 min.

Question: For `O=c1c(OC2OC(CO)C(O)C(O)C2O)c(-c2ccc(O)c(O)c2)oc2cc(O)cc(O)c12` (configuration not stated) [quercetin-3-galactoside], which LC retention time is on record?
Answer: Its LC retention time is 28.9 min.

Question: For `O=c1c(O)c(-c2ccc(O)c(O)c2)oc2cc(O)cc(O)c12` [quercetin], which LC retention time is on record?
Answer: The LC retention time was 34 min.
